Experimental data as given in PubChem BioAssay AID2060894 (Molecular Pharmacology Branch, DTP, NCI, 2025).

Test system: K12877-001-R-J1-PDC complex spheroid viability
Test: Anticancer human tumor K12877-001-R-J1-PDC patient-derived lung adenocarcinoma cell line growth inhibition [RAS]
Conditions: for IC50: curve of first compound; for viability, T/C: stronger effect = lower value
Outline: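 Tumour cells grown as complex spheroids with HUVEC endothelial cells and mesenchymal stem cells, treated with RAS pathway inhibitor combinations. Each agent spans half-log steps from near clinical Cmax, or 10 microM where Cmax is unknown.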

[1] = second compound 0.00316 µM, first compound 0.00316 µM
[2] = second compound 0.00316 µM, first compound 0.01 µM
[3] = second compound 0.00316 µM, first compound 0.0316 µM
[4] = second compound 0.00316 µM, first compound 0.1 µM
[5] = second compound 0.00316 µM, first compound 0.316 µM
[6] = second compound 0.00316 µM, first compound 1 µM
[7] = second compound 0.01 µM, first compound 0.00316 µM
[8] = second compound 0.01 µM, first compound 0.01 µM
[9] = second compound 0.01 µM, first compound 0.0316 µM
[10] = second compound 0.01 µM, first compound 0.1 µM
[11] = second compound 0.01 µM, first compound 0.316 µM
[12] = second compound 0.01 µM, first compound 1 µM
[13] = second compound 0.0316 µM, first compound 0.00316 µM
[14] = second compound 0.0316 µM, first compound 0.01 µM
[15] = second compound 0.0316 µM, first compound 0.0316 µM
[16] = second compound 0.0316 µM, first compound 0.1 µM
[17] = second compound 0.0316 µM, first compound 0.316 µM
[18] = second compound 0.0316 µM, first compound 1 µM
[19] = second compound 0.1 µM, first compound 0.00316 µM
[20] = second compound 0.1 µM, first compound 0.01 µM
[21] = second compound 0.1 µM, first compound 0.0316 µM
[22] = second compound 0.1 µM, first compound 0.1 µM
[23] = second compound 0.1 µM, first compound 0.316 µM
[24] = second compound 0.1 µM, first compound 1 µM
[25] = second compound 0.316 µM, first compound 0.00316 µM
[26] = second compound 0.316 µM, first compound 0.01 µM
[27] = second compound 0.316 µM, first compound 0.0316 µM
[28] = second compound 0.316 µM, first compound 0.1 µM
[29] = second compound 0.316 µM, first compound 0.316 µM
[30] = second compound 0.316 µM, first compound 1 µM
[31] = second compound 1 µM, first compound 0.00316 µM
[32] = second compound 1 µM, first compound 0.01 µM
[33] = second compound 1 µM, first compound 0.0316 µM
[34] = second compound 1 µM, first compound 0.1 µM
[35] = second compound 1 µM, first compound 0.316 µM
[36] = second compound 1 µM, first compound 1 µM
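Note: spheroids exposed to agents for one week before readout.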
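Throughout, for viability, T/C: tumour cells co-cultured with HUVEC and mesenchymal stem cells in spheroids.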

C=CC(=O)Nc1cc(Nc2nccc(-c3cn(C)c4ccccc34)n2)c(OC)cc1N(C)CCN(C)C + C=CC(=O)N1CCN(c2nc(OCC3CCCN3C)nc3c(F)c(-c4nc(N)cc(C)c4C(F)(F)F)c(Cl)cc23)C(C)C1
IC50 (second compound 0.00316 µM): > 1 µM
IC50 (second compound 0.01 µM): > 1 µM
IC50 (second compound 0.0316 µM): > 1 µM
IC50 (second compound 0.1 µM): > 1 µM
IC50 (second compound 0.316 µM): > 1 µM
IC50 (second compound 1 µM): > 1 µM
viability, T/C [1]: 106%
viability, T/C [2]: 98.8%
viability, T/C [3]: 98.7%
viability, T/C [4]: 100%
viability, T/C [5]: 101%
viability, T/C [6]: 83.8%
viability, T/C [7]: 104%
viability, T/C [8]: 95%
viability, T/C [9]: 103%
viability, T/C [10]: 96.2%
viability, T/C [11]: 92.7%
viability, T/C [12]: 82.6%
viability, T/C [13]: 95.8%
viability, T/C [14]: 93.1%
viability, T/C [15]: 88.3%
viability, T/C [16]: 90.7%
viability, T/C [17]: 79.6%
viability, T/C [18]: 80.1%
viability, T/C [19]: 93.6%
viability, T/C [20]: 88.1%
viability, T/C [21]: 88.9%
viability, T/C [22]: 88.1%
viability, T/C [23]: 76.2%
viability, T/C [24]: 70.8%
viability, T/C [25]: 90.8%
viability, T/C [26]: 94.1%
viability, T/C [27]: 82.3%
viability, T/C [28]: 89.1%
viability, T/C [29]: 79.8%
viability, T/C [30]: 72.6%
viability, T/C [31]: 86.5%
viability, T/C [32]: 91.8%
viability, T/C [33]: 83.6%
viability, T/C [34]: 76.9%
viability, T/C [35]: 76.6%
viability, T/C [36]: 73.5%

CC(Nc1ccc2c(c1)OCCn1cc(N3C(=O)OCC3C(F)F)nc1-2)C(N)=O (stereo unspecified) + C=CC(=O)N1CCN(c2nc(OCC3CCCN3C)nc3c(F)c(-c4nc(N)cc(C)c4C(F)(F)F)c(Cl)cc23)C(C)C1
IC50 (second compound 0.00316 µM): 1.22 µM
IC50 (second compound 0.01 µM): 1.92 µM
IC50 (second compound 0.0316 µM): 2.12 µM
IC50 (second compound 0.1 µM): 1.86 µM
IC50 (second compound 0.316 µM): 1.16 µM
IC50 (second compound 1 µM): 1.43 µM
viability, T/C [3]: 92%
viability, T/C [4]: 72.8%
viability, T/C [5]: 57.6%
viability, T/C [6]: 61.6%
viability, T/C (second compound 0.00316 µM, first compound 3.16 µM): 44.9%
viability, T/C (second compound 0.00316 µM, first compound 10 µM): 21.3%
viability, T/C [9]: 86.3%
viability, T/C [10]: 69.6%
viability, T/C [11]: 57.9%
viability, T/C [12]: 64%
viability, T/C (second compound 0.01 µM, first compound 3.16 µM): 48.7%
viability, T/C (second compound 0.01 µM, first compound 10 µM): 18.7%
viability, T/C [15]: 74.3%
viability, T/C [16]: 78.4%
viability, T/C [17]: 57.6%
viability, T/C [18]: 63.1%
viability, T/C (second compound 0.0316 µM, first compound 3.16 µM): 46.2%
viability, T/C (second compound 0.0316 µM, first compound 10 µM): 16.8%
viability, T/C [21]: 76.7%
viability, T/C [22]: 64.7%
viability, T/C [23]: 65%
viability, T/C [24]: 63.2%
viability, T/C (second compound 0.1 µM, first compound 3.16 µM): 40.4%
viability, T/C (second compound 0.1 µM, first compound 10 µM): 15%
viability, T/C [27]: 75.9%
viability, T/C [28]: 79.1%
viability, T/C [29]: 62.3%
viability, T/C [30]: 50.9%
viability, T/C (second compound 0.316 µM, first compound 3.16 µM): 37.6%
viability, T/C (second compound 0.316 µM, first compound 10 µM): 19.1%
viability, T/C [33]: 77%
viability, T/C [34]: 70.9%
viability, T/C [35]: 62.2%
viability, T/C [36]: 53.1%
viability, T/C (second compound 1 µM, first compound 3.16 µM): 43.5%
viability, T/C (second compound 1 µM, first compound 10 µM): 19.6%

O=C(c1ccc(F)c(F)c1Nc1ccc(I)cc1F)N1CC(O)([C@@H]2CCCCN2)C1 + C=CC(=O)N1CCN(c2nc(OCC3CCCN3C)nc3c(F)c(-c4nc(N)cc(C)c4C(F)(F)F)c(Cl)cc23)C(C)C1
IC50 (second compound 0.00316 µM): > 1 µM
IC50 (second compound 0.01 µM): > 1 µM
IC50 (second compound 0.0316 µM): > 1 µM
IC50 (second compound 0.1 µM): > 1 µM
IC50 (second compound 0.316 µM): > 1 µM
IC50 (second compound 1 µM): > 1 µM
viability, T/C [1]: 104%
viability, T/C [2]: 103%
viability, T/C [3]: 89.5%
viability, T/C [4]: 91.7%
viability, T/C [5]: 72.2%
viability, T/C [6]: 54.5%
viability, T/C [7]: 94.5%
viability, T/C [8]: 95%
viability, T/C [9]: 78.9%
viability, T/C [10]: 90.7%
viability, T/C [11]: 68.1%
viability, T/C [12]: 58.3%
viability, T/C [13]: 93%
viability, T/C [14]: 85.2%
viability, T/C [15]: 77.5%
viability, T/C [16]: 87.6%
viability, T/C [17]: 71.1%
viability, T/C [18]: 66.4%
viability, T/C [19]: 85.2%
viability, T/C [20]: 89.3%
viability, T/C [21]: 83.7%
viability, T/C [22]: 82.2%
viability, T/C [23]: 72.4%
viability, T/C [24]: 55.4%
viability, T/C [25]: 85.7%
viability, T/C [26]: 83.3%
viability, T/C [27]: 84.7%
viability, T/C [28]: 89.4%
viability, T/C [29]: 72.4%
viability, T/C [30]: 59%
viability, T/C [31]: 79.5%
viability, T/C [32]: 79.3%
viability, T/C [33]: 78.1%
viability, T/C [34]: 103%
viability, T/C [35]: 75.3%
viability, T/C [36]: 57.2%
